Our source for the mutagenic call values is PubChem BioAssay AID1259407 (Chemical Carcinogenesis Research Information System (CCRIS), 2018).

Activity calls are given as the source filed them. No rule for the calls is given here.

For this data set, the system named is CCRIS mutagenicity, Ames/micronucleus/aberration tests. As to the kind of experiment: CCRIS mutagenicity studies.
Where [1] appears, read: Test System: AMES SALMONELLA TYPHIMURIUM, Strain/Indicator: TA98, Metabolic Activation: NONE, Method: STANDARD PLATE.
Where [2] appears, read: Test System: AMES SALMONELLA TYPHIMURIUM, Strain/Indicator: TA98, Metabolic Activation: RAT, LIVER, S-9, AROCLOR 1254, Method: STANDARD PLATE.
Setting [3] is: Test System: AMES SALMONELLA TYPHIMURIUM, Strain/Indicator: TA100, Metabolic Activation: NONE, Method: STANDARD PLATE.
[4] abbreviates: Test System: AMES SALMONELLA TYPHIMURIUM, Strain/Indicator: TA100, Metabolic Activation: RAT, LIVER, S-9, AROCLOR 1254, Method: STANDARD PLATE.

Regarding `COc1cc2c(CCNC(C)=O)c[nH]c2cc1O`, the mutagenic call is “inactive; negative” (Test System: AMES SALMONELLA TYPHIMURIUM, Strain/Indicator: TA97, Metabolic Activation: NONE, Method: STANDARD PLATE); “inactive; negative” (Test System: AMES SALMONELLA TYPHIMURIUM, Strain/Indicator: TA97, Metabolic Activation: RAT, LIVER, S-9, AROCLOR 1254, Method: STANDARD PLATE); “inactive; negative” under setting [1]; “inactive; negative” under setting [2]; “inactive; negative” under setting [3]; “inactive; negative” under setting [4].
With `c1ccc2c(c1)cc1ccc3cccc4ncc2c1c34`, the mutagenic call under setting [2] was “active; positive” and the mutagenic call under setting [4] was “active; positive”.
As to `C=C(Br)C(C)=O`, under setting [3], the mutagenic call is “active; positive”.
With `O=[N+]([O-])c1ccc2ccc3c4c(cc5ccc1c2c53)[C@@H](O)[C@H](O)[C@@H]1O[C@H]41`, the mutagenic call (Test System: CHINESE HAMSTER OVARY, Strain/Indicator: CHO-K1-BH4 (HGPRT)/6-THIOGUANINE, Metabolic Activation: NONE) is “active; positive”.
Take `BrCCCCCBr`: the mutagenic call is “inactive; negative” (Test System: AMES SALMONELLA TYPHIMURIUM, Strain/Indicator: TA98, Metabolic Activation: NONE, Method: PREINCUBATION); “inactive; negative” (Test System: AMES SALMONELLA TYPHIMURIUM, Strain/Indicator: TA98, Metabolic Activation: RAT LIVER S-9, PHENOBARBITAL AND BETA-NAPHTHOFLAVONE, Method: PREINCUBATION); “inactive; negative” (Test System: AMES SALMONELLA TYPHIMURIUM, Strain/Indicator: TA100, Metabolic Activation: NONE, Method: PREINCUBATION); “inactive; negative” (Test System: AMES SALMONELLA TYPHIMURIUM, Strain/Indicator: TA100, Metabolic Activation: RAT LIVER S-9, PHENOBARBITAL AND BETA-NAPHTHOFLAVONE, Method: PREINCUBATION); “inactive; negative” (Test System: AMES SALMONELLA TYPHIMURIUM, Strain/Indicator: TA1537, Metabolic Activation: NONE, Method: PREINCUBATION); “inactive; negative” (Test System: AMES SALMONELLA TYPHIMURIUM, Strain/Indicator: TA1537, Metabolic Activation: RAT LIVER S-9, PHENOBARBITAL AND BETA-NAPHTHOFLAVONE, Method: PREINCUBATION).
`CC(C)(C)NC[C@H](O)COc1ccc(O)cc1C1CCCC1`: the mutagenic call under setting [1] is “inactive; negative” and the mutagenic call under setting [2] was “inactive; negative”.
For `C=CC(=O)OCC(C)(C)COC(=O)C=C`, the mutagenic call under setting [1] is “inactive; negative”; the mutagenic call under setting [2] was “inactive; negative”; the mutagenic call (Test System: AMES SALMONELLA TYPHIMURIUM, Strain/Indicator: TA98, Metabolic Activation: RAT, LIVER, S-9, SODIUM PHENOBARBITAL, Method: STANDARD PLATE) was “inactive; negative”; the mutagenic call under setting [3] is “inactive; negative”; the mutagenic call under setting [4] was “inactive; negative”; the mutagenic call (Test System: AMES SALMONELLA TYPHIMURIUM, Strain/Indicator: TA100, Metabolic Activation: RAT, LIVER, S-9, SODIUM PHENOBARBITAL, Method: STANDARD PLATE) is “inactive; negative”. The mutagenic call is, setting by setting: (Test System: AMES SALMONELLA TYPHIMURIUM, Strain/Indicator: TA1535, Metabolic Activation: NONE, Method: STANDARD PLATE) “inactive; negative”; (Test System: AMES SALMONELLA TYPHIMURIUM, Strain/Indicator: TA1535, Metabolic Activation: RAT, LIVER, S-9, AROCLOR 1254, Method: STANDARD PLATE) “inactive; negative”; (Test System: AMES SALMONELLA TYPHIMURIUM, Strain/Indicator: TA1535, Metabolic Activation: RAT, LIVER, S-9, SODIUM PHENOBARBITAL, Method: STANDARD PLATE) “inactive; negative”; (Test System: AMES SALMONELLA TYPHIMURIUM, Strain/Indicator: TA1537, Metabolic Activation: NONE, Method: STANDARD PLATE) “inactive; negative”; (Test System: AMES SALMONELLA TYPHIMURIUM, Strain/Indicator: TA1537, Metabolic Activation: RAT, LIVER, S-9, AROCLOR 1254, Method: STANDARD PLATE) “inactive; negative”; (Test System: AMES SALMONELLA TYPHIMURIUM, Strain/Indicator: TA1537, Metabolic Activation: RAT, LIVER, S-9, SODIUM PHENOBARBITAL, Method: STANDARD PLATE) “inactive; negative”. Also, the mutagenic call (Test System: AMES SALMONELLA TYPHIMURIUM, Strain/Indicator: TA1538, Metabolic Activation: NONE, Method: STANDARD PLATE) is “inactive; negative”; the mutagenic call (Test System: AMES SALMONELLA TYPHIMURIUM, Strain/Indicator: TA1538, Metabolic Activation: RAT, LIVER, S-9, AROCLOR 1254, Method: STANDARD PLATE) was “inactive; negative”; the mutagenic call (Test System: AMES SALMONELLA TYPHIMURIUM, Strain/Indicator: TA1538, Metabolic Activation: RAT, LIVER, S-9, SODIUM PHENOBARBITAL, Method: STANDARD PLATE) is “inactive; negative”.
